Test results from US20100055169A1, “CATIONIC LIPIDS AND USES THEREOF” (ABBOTT LABORATORIES, priority 2008, published 2010).
Blank lines part the entries; values can stand above or below the molecule they belong to.

Key:
Format in all cases: physicochemical
Conditions in all cases: lipid:siRNA 25:1
[1] = Particle sizing by dynamic light scattering (DynaPro plate reader), in vitro formulations
Experimental: (§1) The siRNA concentrations were measured using Quanti-iT RiboGreen RNA reagent (Molecular Probes, (R11490)). Vesicle sizes were characterized by dynamic light scattering with a DynaPro™ Plate Reader (Wyatt Technology) in 96-well half-area UV plate (Coring) after diluting the formulation sample (20 μL) in phosphate buffered saline (80 μL) at a pH of about 7-8. A 1% agarose gel-based assay was used for analyzing nuclease degradation and protection. Encapsulation efficiency (EE) was calculated using data obtained from a RiboGreen assay.
Particle sizes and size distributions (PDI) were characterized by using dynamic light scattering (DLS). A DLS plate reader (Dynapro™, Wyatt Technology) was used for the DLS measurement. This DLS plate reader uses an 830 nm laser and the scattering angle is 158°. It also can control temperature from 4° C. to 70° C. A 96-well format was employed for the samples.
Samples for DLS analysis were prepared by mixing 20 μL of each sample stock solution with 80 μL PBS directly in the 96-well plate (#3697, Corning). Sample mixing was accomplished using a microplate shaker (Orbis, Mikura Ltd.). Plates were read at 20° C. with an acquisition time of 50 seconds for each sample, and data was analyzed with Wyatt Technology's Dynamics V6 software. To rule out potential multiple scattering artifacts, a second plate at 4-fold reduced sample concentrations was independently prepared by mixing 5 μL stock solutions with 95 μL PBS. Under our experimental conditions the results at the two concentrations were very similar, and the final reported result for each sample represents the average of values obtained from the two plates.

[2] = Particle sizing assay (Zetasizer Nano ZS), in vivo formulations
Experimental: (§2) A round bottom flask was submerged into a 65° C. water bath. Citrate buffer (37.5 ml) of pH 4.0 was pipetted into the flask. The solution was stirred by a magnetic stirring bar at a speed of 900 rpm. Both the pH 4.0 citrate buffer and the lipid solution were pre-warmed in the 65° C. water bath for about 3 minutes. A siRNA solution (0.5 ml) was pipetted into the pH 4.0 citrate buffer. The 12.5 ml lipid mixture solution was injected through a 27 gauge needle into the citrate buffer in about 30 seconds. The needle tip was inserted into the solution during the injection. The resulting solution was stirred for 5 minutes at a speed of 900 rpm. The flask was pulled up from the water bath and a 50 ml pH 7.4 PBS buffer was added into the flask. The final solution was further mixed at a speed of 900 rpm for 5 minutes. For the diafiltration process, a dialysis filter (Millipore, 100K, Cat#PXB100C50) was used to remove ethanol in the above solution. When the volume was reduced to 20 ml during the initial diafiltration, 20 ml of pH 7.4 PBS was added to the sample solution. The diafiltration was continued until the volume was reduced to 20 ml. The diafiltration process was repeated 4 times. The volume of the sample solution was reduced to about 12 ml and pH 7.4 PBS was added to make the final volume of 15 ml. The 15 ml solution was filtered sequentially through the 0.45 and 0.22 μm sterile PVDF membrane filters (Millipore) and immediately transferred into a sterile vial.
For measurements of particle sizes and size distributions (PDI), lipid-based particles were prepared as described above. The particle solution (60 μL) was pipetted into a disposable cuvette (UVette, Eppendorf, cat#952010051) and measured in the “General Purpose” mode. Attenuator and position were optimized by the device. Measurements were performed using a Zetasizer Nano ZS (Malvern Instruments) equipped with a 4 mW He—Ne laser at a wavelength of 633 nm at 25° C. Scattered light was detected at a 173° backward scattering angle. The viscosity and refractive index of water at 25° C. was used for data analysis with the Dispersion Technology Software 5.00 (Malvern Instruments).

[3] = RiboGreen assay of siRNA encapsulation efficiency, in vivo formulations of Lipid-Based Particles
Experimental: (§3) RNA concentration and encapsulation efficiency were determined using a Quant-iT® Ribogreen RNA reagent and kit available from Invitrogen. The siRNA was released from the Lipid-Based Particle using one of the following reagents: ethanol, Triton X-100, or phenol/chloroform. The siRNA concentration is quantified using fluorescent reading at 480 nm/520 nm.
The lipid solution was prepared (10 mg/ml) by dissolving the lipid in 200 proof ethanol. The lipid mixture solution is prepared according to the above composition in Table 5.
An siRNA (TetR_ODC—12, G.G.G.G.A.A.A.G.C.U.G.G.C.A.A.G.A.U.U.U.U SEQ ID NO: 1) (ThermoFisher) solution is prepared in a concentration of 10 mg/ml by dissolving 10 mg siRNA in 1 ml of DNAse/RNAse-free distilled water.
as §2

[4] = RiboGreen assay of siRNA encapsulation efficiency, in vitro formulations of Lipid-Based Particles
Experimental: The mixing solution of cationic lipids, cholesterol, non-cationic lipids and PEG-lipids was prepared in ethanol (total concentration at 10 mg/mL). siSTABLE (purchased from ThermoFisher) (sense-5′ GGGGAAAGCUGGCAAGAUUUU-3′SEQ ID NO. 1, antisense-5′-AAUCUUGCCAGCUUUCCCCUU-3′ SEQ ID NO: 2) % stock solution was prepared in 10 mg/mL of solution by dissolving 10 mg siRNA in 1 mL of RNAse-free UltraPure Water. The calculated amount of siRNA solution was added to 1 mL of citrate buffer (pH 4.0, 20 mM), to provide an siRNA concentration of 0.2 mg/mL, and warmed to 60 C. The calculated amount of lipid solution was warmed to 60 C, transferred to a 0.5 mL syringe with 28½ gauge needle, and injected into the citrate buffer with stirring at 60 C. After 3 minutes, 3 mL of PBS solution at room temperature (pH 7.4) was added into the lipid mixture with stirring. The Lipid-Based Particle solution was cooled to room temperature.
as §1, §3

[5] = in vitro formulation b: Cationic lipid/PEG-cholesterol/DSPC/Chol 45/10/15/30 wt %
[6] = in vivo formulation A: Cationic lipid/Example 73/DSPC/Chol 45/10/15/30 wt %
[7] = in vitro formulation a: Cationic lipid/Example 73/DSPC/Chol 45/10/15/30 wt %
[8] = in vivo formulation I: Cationic lipid/PEG-DPPE/DSPC/Chol 45/10/15/30 wt %
[9] = in vivo formulation J: Cationic lipid/PEG-DSPE/DSPC/Chol 45/10/15/30 wt %
[10] = in vivo formulation L: Cationic lipid/PEG-DPG/DSPC/Chol 45/10/15/30 wt %

- Size [1, 5]: 96.3 nm
- Size [2, 6]: 108 nm
- Size distribution (PDI) [2, 6]: (0.18)
- % Encapsulation Efficiency [3, 6]: 74%
SMILES: CCCCC/C=C\C/C=C\CCCCCCCCOCC(CCN1CCCCC1)OCCCCCCCC/C=C\C/C=C\CCCCC (stereo not shown) [Example 1, 1-{3,4-bis[(9Z,12Z)-octadeca-9,12-dienyloxy]butyl}piperidine]

- Size [1, 7]: 192 nm
- Size [1, 5]: 113.4 nm
- Size [2, 6]: 116 nm
- Size distribution (PDI) [2, 6]: (0.12)
- % Encapsulation Efficiency [4, 7]: 97.2%
- % Encapsulation Efficiency [4, 5]: 96.9%
SMILES: CCCCC/C=C\C/C=C\CCCCCCCCOCC(CCN(CC)CC)OCCCCCCCC/C=C\C/C=C\CCCCC (stereo not shown) [Example 3, N,N-diethyl-3,4-bis[(9Z,12Z)-octadeca-9,12-dienyloxy]butan-1-amine]

- Size [1, 5]: 136.6 nm
- % Encapsulation Efficiency [4, 5]: 97.5%
SMILES: CCCCC/C=C\C/C=C\CCCCCCCCOCC(CCN(C)C)OCCCCCCCC/C=C\C/C=C\CCCCC (stereo not shown) [Example 4, N,N-dimethyl-3,4-bis[(9Z,12Z)-octadeca-9,12-dienyloxy]butan-1-amine]

- Size [1, 7]: 157 nm
- Size distribution (PDI) [1, 7]: 0.070
SMILES: CCCCC/C=C\C/C=C\CCCCCCCCOCC(CCN1CCN(c2ccccc2)CC1)OCCCCCCCC/C=C\C/C=C\CCCCC (stereo not shown) [Example 5, 1-{3,4-bis[(9Z,12Z)-octadeca-9,12-dienyloxy]butyl}-4-phenylpiperazine]

- Size [1, 7]: 178 nm
- Size distribution (PDI) [1, 7]: 0.16
SMILES: CCCCC/C=C\C/C=C\CCCCCCCCOCC(CCN1CCN(C)CC1)OCCCCCCCC/C=C\C/C=C\CCCCC (stereo not shown) [Example 6, 1-{3,4-bis[(9Z,12Z)-octadeca-9,12-dienyloxy]butyl}-4-methylpiperazine]

- Size [1, 7]: 130 nm
SMILES: CCCCC/C=C\C/C=C\CCCCCCCCOCC(CCN1CCN(c2ccccc2OC)CC1)OCCCCCCCC/C=C\C/C=C\CCCCC (stereo not shown) [Example 8, 1-{3,4-bis[(9Z,12Z)-octadeca-9,12-dienyloxy]butyl}-4-(2-methoxyphenyl)piperazine]

- Size [1, 7]: 161 nm
- Size distribution (PDI) [1, 7]: 0.168
SMILES: CCCCC/C=C\C/C=C\CCCCCCCCOCC(CCN(C)CCc1ccccn1)OCCCCCCCC/C=C\C/C=C\CCCCC (stereo not shown) [Example 10, N-{3,4-bis[(9Z,12Z)-octadeca-9,12-dienyloxy]butyl}-N-methyl-N-(2-pyridin-2-ylethyl)amine]

- Size [1, 7]: 154 nm
- Size distribution (PDI) [1, 7]: 0.2
SMILES: CCCCC/C=C\C/C=C\CCCCCCCCOCC(CCN(C)Cc1ccccc1)OCCCCCCCC/C=C\C/C=C\CCCCC (stereo not shown) [Example 11, N-benzyl-N-{3,4-bis[(9Z,12Z)-octadeca-9,12-dienyloxy]butyl}-N-methylamine]

- Size [1, 7]: 70.9 nm
SMILES: CCCCC/C=C\C/C=C\CCCCCCCCOCC(CCN1CCC(N(C)C)CC1)OCCCCCCCC/C=C\C/C=C\CCCCC (stereo not shown) [Example 16, 1-{3,4-bis[(9Z,12Z)-octadeca-9,12-dienyloxy]butyl}-N,N-dimethylpiperidin-4-amine]

- Size [1, 7]: 104 nm
- % Encapsulation Efficiency [4, 7]: 94.1%
SMILES: CCCCC/C=C\C/C=C\CCCCCCCCOCC(CCN(CCOC)CCOC)OCCCCCCCC/C=C\C/C=C\CCCCC (stereo not shown) [Example 18, N,N-bis(2-methoxyethyl)-3,4-bis [(9Z,12Z)-octadeca-9,12-dienyloxy]butan-1-amine]

- Size [1, 7]: 152 nm
- % Encapsulation Efficiency [4, 7]: 94.2%
SMILES: CCCCC/C=C\C/C=C\CCCCCCCCOCC(CCN1CCC(OC)CC1)OCCCCCCCC/C=C\C/C=C\CCCCC (stereo not shown) [Example 19, 1-{3,4-bis[(9Z,12Z)-octadeca-9,12-dienyloxy]butyl}-4-methoxypiperidine]

- Size [1, 7]: 146 nm
- Size [2, 6]: 100 nm
- Size distribution (PDI) [2, 6]: (0.09)
- % Encapsulation Efficiency [4, 7]: 97.2%
SMILES: CCCCC/C=C\C/C=C\CCCCCCCCOC[C@@H](CCN1CCCC1)OCCCCCCCC/C=C\C/C=C\CCCCC [Example 20, 1-{(3R)-3,4-bis[(9Z,12Z)-octadeca-9,12-dienyloxy]butyl}pyrrolidine]

- Size [1, 7]: 128 nm
- Size [2, 6]: 103 nm
- Size distribution (PDI) [2, 6]: (0.06)
- % Encapsulation Efficiency [4, 7]: 96.9%
SMILES: CCCCC/C=C\C/C=C\CCCCCCCCOC[C@H](CCN1CCCC1)OCCCCCCCC/C=C\C/C=C\CCCCC [Example 21, 1-{(3S)-3,4-bis[(9Z,12Z)-octadeca-9,12-dienyloxy]butyl}pyrrolidine]

- Size [1, 7]: 130 nm
- % Encapsulation Efficiency [4, 7]: 86%
SMILES: CCCCC/C=C\C/C=C\CCCCCCCCOC[C@@H](CCN(CC)CC)OCCCCCCCC/C=C\C/C=C\CCCCC [Example 22, N-{(3R)-3,4-bis[(9Z,12Z)-octadeca-9,12-dienyloxy]butyl}-N,N-diethylamine]

- Size [1, 7]: 128 nm
- % Encapsulation Efficiency [4, 7]: 97.2%
SMILES: CCCCC/C=C\C/C=C\CCCCCCCCOC[C@H](CCN(CC)CC)OCCCCCCCC/C=C\C/C=C\CCCCC [Example 23, N-{(3S)-3,4-bis[(9Z,12Z)-octadeca-9,12-dienyloxy]butyl}-N,N-diethylamine]

SMILES: CCCCC/C=C\C/C=C\CCCCCCCCOCC(CCOCCN1CCN(C)CC1)OCCCCCCCC/C=C\C/C=C\CCCCC (stereo not shown) [Example 28, 1-(2-{3,4-bis[(9Z,12Z)-octadeca-9,12-dienyloxy]butoxy}ethyl)-4-methylpiperazine]
- Size [2, 8]: 107.1 nm
- Size distribution (PDI) [2, 8]: (0.025)
- Size [2, 9]: 80.2 nm
- Size distribution (PDI) [2, 9]: (0.026)
- Size [2, 10]: 87 nm
- Size distribution (PDI) [2, 10]: (0.012)
- % Encapsulation Efficiency [3, 8]: 99%
- % Encapsulation Efficiency [3, 9]: 99%
- % Encapsulation Efficiency [3, 10]: 99%
- % Encapsulation Efficiency [4, 5]: 94.3%

SMILES: CCCCC/C=C\C/C=C\CCCCCCCCOCC(CCOCCN1CCCC1)OCCCCCCCC/C=C\C/C=C\CCCCC (stereo not shown) [Example 31, 1-(2-{3,4-bis[(9Z,12Z)-octadeca-9,12-dienyloxy]butoxy}ethyl)pyrrolidine]
- Size [2, 6]: 136 nm
- Size distribution (PDI) [2, 6]: (0.0923)
- % Encapsulation Efficiency [3, 6]: 93.3%
- % Encapsulation Efficiency [4, 5]: 96.2%
